“And” between values parts separate entries of the source, which are not always exact repeats. Equal values may be shown once.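 Exposure lasted 48 hours, with cells grown in 96-well plates and compounds tested at five concentrations. GI50 = concentration required for 50% inhibition of growth. At the TGI there is no net growth.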
Key:
Experiment in all cases: DTP human tumour cell line panel, 48 h
A549 NSCLC = system: A549 NSCLC
ACHN renal = system: ACHN renal
HOP-62 NSCLC = system: HOP-62 NSCLC
MALME-3M melanoma = system: MALME-3M melanoma
SF-539 CNS = system: SF-539 CNS
SK-OV-3 ovarian = system: SK-OV-3 ovarian
SNB-19 CNS = system: SNB-19 CNS
U251 CNS = system: U251 CNS
DLD-1 colon = system: DLD-1 colon
KM20L2 colon = system: KM20L2 colon

Q: How did the GI50 (A549 NSCLC) turn out when `Cn1cc(-c2nc(-c3c[nH]c4ccncc34)cs2)c2cc(F)ccc21` was run?
A: 1.85 µM

Q: What about the TGI (A549 NSCLC) of the same compound?
A: 3.57 µM

Q: What about the GI50 (ACHN renal) of the same compound?
A: 1.74 µM

Q: What about the TGI (ACHN renal) of the same compound?
A: 3.12 µM

Q: What about the GI50 (HOP-62 NSCLC) of the same compound?
A: 1.73 µM

Q: What about the TGI (HOP-62 NSCLC) of the same compound?
A: 3.3 µM

Q: And the GI50 (MALME-3M melanoma)?
A: 1.57 µM

Q: And the TGI (MALME-3M melanoma)?
A: 3.06 µM

Q: What about the GI50 (SF-539 CNS) of the same compound?
A: 1.68 µM

Q: And the TGI (SF-539 CNS)?
A: 3.1 µM

Q: And the GI50 (SK-OV-3 ovarian)?
A: 1.92 µM

Q: What about the TGI (SK-OV-3 ovarian) of the same compound?
A: 3.37 µM

Q: What about the GI50 (SNB-19 CNS) of the same compound?
A: 1.83 µM

Q: And the TGI (SNB-19 CNS)?
A: 3.38 µM

Q: And the GI50 (U251 CNS)?
A: 1.8 µM

Q: And the TGI (U251 CNS)?
A: 3.29 µM

Q: Which results are given for `C=CC[N+](CCO)(CCO)CCCCCCCCCCCCCCCCCC`?
A: TGI (A549 NSCLC): 35 µM; TGI (DLD-1 colon): 30.2 µM; TGI (HOP-62 NSCLC): 27.3 µM; TGI (KM20L2 colon): 17.1 µM; TGI (MALME-3M melanoma): 31.1 µM; TGI (SF-539 CNS): 13.1 µM; TGI (SK-OV-3 ovarian): 27.9 µM; TGI (SNB-19 CNS): 35.3 µM; TGI (U251 CNS): 4.48 µM

Q: What does the source list for `COc1ccc(/C(Cl)=C(\C=O)c2ccccc2)cc1OC`?
A: TGI (A549 NSCLC): > 100 µM; TGI (ACHN renal): > 100 µM; TGI (DLD-1 colon): > 100 µM; TGI (HOP-62 NSCLC): 81.8 µM; TGI (KM20L2 colon): > 100 µM; TGI (MALME-3M melanoma): > 100 µM; TGI (SF-539 CNS): > 100 µM; TGI (SK-OV-3 ovarian): > 100 µM; TGI (SNB-19 CNS): > 100 µM; TGI (U251 CNS): > 100 µM

Q: Which GI50 (A549 NSCLC) does the source give for `C=C1C(=O)O[C@@H]2OC3(C)CCC4C(C)CCC1C42OO3` (some centres undefined) here?
A: 7.23 µM

Q: And the TGI (A549 NSCLC)?
A: 23.1 µM and 18.7 µM

Q: What about the GI50 (DLD-1 colon) of the same compound?
A: 1.02 µM

Q: And the TGI (DLD-1 colon)?
A: 4.72 µM and 4.65 µM

Q: What about the TGI (HOP-62 NSCLC) of the same compound?
A: 36.7 µM

Q: And the GI50 (KM20L2 colon)?
A: 11.1 µM

Q: What about the TGI (KM20L2 colon) of the same compound?
A: 24.1 µM

Q: And the GI50 (MALME-3M melanoma)?
A: 4.13 µM

Q: What about the GI50 (SF-539 CNS) of the same compound?
A: 3.07 µM

Q: What about the TGI (SF-539 CNS) of the same compound?
A: 11.7 µM and 6.62 µM

Q: What about the TGI (SK-OV-3 ovarian) of the same compound?
A: 34.7 µM

Q: What about the GI50 (SNB-19 CNS) of the same compound?
A: 12.6 µM

Q: What about the TGI (SNB-19 CNS) of the same compound?
A: 26.5 µM and 27.9 µM

Q: And the GI50 (U251 CNS)?
A: 8.18 µM

Q: And the TGI (U251 CNS)?
A: 21.2 µM and 16.8 µM

Q: What does the source list for `N/C(=N\N=C\c1cc2c(cc1Cl)OCO2)NO`?
A: TGI (A549 NSCLC): > 100 µM; TGI (DLD-1 colon): > 100 µM; TGI (HOP-62 NSCLC): > 100 µM; TGI (KM20L2 colon): > 100 µM; TGI (MALME-3M melanoma): > 100 µM; TGI (SF-539 CNS): > 95.6 µM; TGI (SK-OV-3 ovarian): > 92.5 µM; TGI (SNB-19 CNS): > 45.4 µM; TGI (U251 CNS): > 100 µM

Q: With `O=C1OC(c2ccc(Cl)cc2)(c2ccc(Cl)cc2)c2c1ccc1ccccc21` as the compound, how does the TGI (A549 NSCLC) read?
A: > 100 µM

Q: What about the TGI (ACHN renal) of the same compound?
A: > 100 µM

Q: And the TGI (DLD-1 colon)?
A: > 100 µM

Q: And the TGI (KM20L2 colon)?
A: > 100 µM

Q: What about the TGI (MALME-3M melanoma) of the same compound?
A: > 100 µM

Q: What about the TGI (SK-OV-3 ovarian) of the same compound?
A: > 100 µM

Q: And the TGI (SNB-19 CNS)?
A: > 100 µM

Q: What about the TGI (U251 CNS) of the same compound?
A: > 100 µM

Q: `C[C@H](CN1CC(=O)NC(=O)C1)N1CC(=O)NC(=O)C1` was tested. Which TGI (A549 NSCLC) did it give?
A: > 100 µM

Q: What about the TGI (DLD-1 colon) of the same compound?
A: > 100 µM

Q: And the TGI (HOP-62 NSCLC)?
A: > 100 µM

Q: What about the TGI (KM20L2 colon) of the same compound?
A: > 100 µM

Q: What about the TGI (MALME-3M melanoma) of the same compound?
A: > 100 µM

Q: What about the TGI (SF-539 CNS) of the same compound?
A: > 100 µM

Q: What about the TGI (SK-OV-3 ovarian) of the same compound?
A: > 100 µM

Q: And the TGI (SNB-19 CNS)?
A: > 100 µM

Q: And the TGI (U251 CNS)?
A: > 100 µM

Q: How did the TGI (A549 NSCLC) turn out when `Nc1nn(CC(O)CO)c(=O)s1` (centres undefined) was run?
A: > 100 µM

Q: What about the TGI (ACHN renal) of the same compound?
A: > 100 µM

Q: And the TGI (DLD-1 colon)?
A: > 100 µM

Q: And the TGI (HOP-62 NSCLC)?
A: > 100 µM

Q: And the TGI (KM20L2 colon)?
A: > 100 µM

Q: What about the TGI (MALME-3M melanoma) of the same compound?
A: > 100 µM

Q: And the TGI (SF-539 CNS)?
A: > 100 µM

Q: And the TGI (SK-OV-3 ovarian)?
A: > 100 µM

Q: What about the TGI (SNB-19 CNS) of the same compound?
A: > 100 µM

Q: And the TGI (U251 CNS)?
A: > 100 µM

Q: `CCOC(=O)C1=NN(c2ccc(Cl)cc2)C2=CC(C)=NN(C)C(=S)N21` was tested. Which TGI (A549 NSCLC) did it give?
A: > 100 µM

Q: What about the TGI (ACHN renal) of the same compound?
A: > 100 µM

Q: And the TGI (SF-539 CNS)?
A: 56.5 µM

Q: What about the TGI (SK-OV-3 ovarian) of the same compound?
A: 94.4 µM

Q: What about the TGI (SNB-19 CNS) of the same compound?
A: > 100 µM

Q: And the TGI (U251 CNS)?
A: 59.2 µM

Q: Which results are given for `COc1ccc(/C=N/n2cnc3c(c2=O)S/C(=C2/SC(=S)N(c4ccc(C)cc4)C2=O)N3c2ccccc2)cc1`?
A: TGI (A549 NSCLC): > 100 µM; TGI (ACHN renal): > 100 µM; TGI (HOP-62 NSCLC): 70.9 µM; TGI (KM20L2 colon): > 100 µM; TGI (MALME-3M melanoma): 60.3 µM; TGI (SF-539 CNS): > 100 µM; TGI (SK-OV-3 ovarian): > 100 µM; TGI (SNB-19 CNS): 83.5 µM

Q: Which results are given for `C[C@H](N)C(=O)N[C@@H]1[C@H]2C(=C(O)C[C@@H](O)[C@@H]2O)C(=O)O[C@@H]1C`?
A: TGI (A549 NSCLC): > 100 µM; TGI (DLD-1 colon): > 100 µM; TGI (HOP-62 NSCLC): > 100 µM; TGI (KM20L2 colon): > 100 µM; TGI (MALME-3M melanoma): > 100 µM; TGI (SF-539 CNS): > 100 µM; TGI (SK-OV-3 ovarian): > 100 µM; TGI (SNB-19 CNS): > 100 µM; TGI (U251 CNS): > 100 µM

Source: PubChem BioAssay (NCI)
